Laboratory results: ChEMBL document CHEMBL1138701, “Anti-AIDS agents. Part 62: anti-HIV activity of 2'-substituted 4-methyl-3',4'-di-O-(-)-camphanoyl-(+)-cis-khellactone (4-methyl DCK) analogs” (Bioorg Med Chem Lett, 2004)

Key:
H9 = experiment: Concentration required to inhibit 50% growth of uninfected H9 cells; type: functional, cell-based; conditions: Homo sapiens
[1] = test system: Human immunodeficiency virus; experiment: Concentration required to inhibit 50% of HIV (human immunodeficiency virus) replication; type: functional, organism-based; conditions: Human immunodeficiency virus 1
[2] = Therapeutic index expressed as ratio of IC50 for 50% growth inhibition to EC50 for 50% replication inhibition; type: cell-based; conditions: human, H9 cells; read-out: TI

SMILES	EC50 [1] [µM]	IC50 (H9) [µM]	selectivity ratio [2]
CCCC1(C)Oc2ccc3c(C)cc(=O)oc3c2[C@@H](OC(=O)C23CCC(C)(C(=O)O2)C3(C)C)[C@H]1OC(=O)C12CCC(C)(C(=O)O1)C2(C)C (stereo partly specified)	6.4	> 37.6	> 5.9
Cc1cc(=O)oc2c3c(ccc12)OC[C@H](OC(=O)C12CCC(C)(C(=O)O1)C2(C)C)[C@@H]3OC(=O)C12CCC(C)(C(=O)O1)C2(C)C (stereo partly specified)	6.9	> 41.1	> 6
CCC1(CC)Oc2ccc3c(C)cc(=O)oc3c2[C@@H](OC(=O)C23CCC(C)(C(=O)O2)C3(C)C)[C@H]1OC(=O)C12CCC(C)(C(=O)O1)C2(C)C (stereo partly specified)	2.84	> 37.6	> 13.2

Now those with a lower EC50 [1], led by results:

EC50 [1] [µM]	SMILES	IC50 (H9) [µM]	selectivity ratio [2]
0.049	CC1(C)Oc2ccc3ccc(=O)oc3c2[C@@H](OC(=O)C23CCC(C)(C(=O)O2)C3(C)C)[C@H]1OC(=O)C12CCC(C)(C(=O)O1)C2(C)C (stereo partly specified)	> 16.1	> 328
0.22	CCC1(C)Oc2ccc3c(C)cc(=O)oc3c2[C@@H](OC(=O)C23CCC(C)(C(=O)O2)C3(C)C)[C@H]1OC(=O)C12CCC(C)(C(=O)O1)C2(C)C (stereo partly specified)	> 38.4	> 175
0.0059	Cc1cc(=O)oc2c3c(ccc12)OC(C)(C)[C@H](OC(=O)C12CCC(C)(C(=O)O1)C2(C)C)[C@@H]3OC(=O)C12CCC(C)(C(=O)O1)C2(C)C (stereo partly specified)	> 38.9	> 6600
0.04	Cc1cn([C@H]2C[C@H](N=[N+]=[N-])[C@@H](CO)O2)c(=O)[nH]c1=O [ZIDOVUDINE]	1870	39000
